Results taken from ChEMBL document CHEMBL4507290 (2021).

Columns and labels:
[1] = test system: Receptor-type tyrosine-protein kinase FLT3 (Homo sapiens), P36888 [N841I]; conditions: Compound concentration 1000.0 nM
[2] = biological target: Angiopoietin-1 receptor (Homo sapiens) (UniProt Q02763); conditions: Compound concentration 1000.0 nM
[3] = biological target: Fibroblast growth factor receptor 4 (Homo sapiens) (UniProt P22455); conditions: Compound concentration 1000.0 nM
[4] = biological target: Cyclin-dependent kinase 17 (Homo sapiens) (UniProt Q00537); conditions: Compound concentration 1000.0 nM
[5] = biological target: Serine/threonine-protein kinase PAK 4 (Homo sapiens) (UniProt O96013); conditions: Compound concentration 1000.0 nM
[6] = biological target: SNF-related serine/threonine-protein kinase (Homo sapiens) (UniProt Q9NRH2); conditions: Compound concentration 1000.0 nM
[7] = biological target: Dual specificity mitogen-activated protein kinase kinase 2 (Homo sapiens) (UniProt P36507); conditions: Compound concentration 1000.0 nM
[8] = test system: Leucine-rich repeat serine/threonine-protein kinase 2 (Homo sapiens), Q5S007 [G2019S]; conditions: Compound concentration 1000.0 nM
[9] = biological target: Protein kinase C epsilon type (Homo sapiens) (UniProt Q02156); conditions: Compound concentration 1000.0 nM
[10] = biological target: Wee1-like protein kinase 2 (Homo sapiens) (UniProt P0C1S8); conditions: Compound concentration 1000.0 nM
[11] = biological target: Serine/threonine-protein kinase Nek11 (Homo sapiens) (UniProt Q8NG66); conditions: Compound concentration 1000.0 nM
Sequence of Serine/threonine-protein kinase Nek11 (Homo sapiens) (Q8NG66 whole entry): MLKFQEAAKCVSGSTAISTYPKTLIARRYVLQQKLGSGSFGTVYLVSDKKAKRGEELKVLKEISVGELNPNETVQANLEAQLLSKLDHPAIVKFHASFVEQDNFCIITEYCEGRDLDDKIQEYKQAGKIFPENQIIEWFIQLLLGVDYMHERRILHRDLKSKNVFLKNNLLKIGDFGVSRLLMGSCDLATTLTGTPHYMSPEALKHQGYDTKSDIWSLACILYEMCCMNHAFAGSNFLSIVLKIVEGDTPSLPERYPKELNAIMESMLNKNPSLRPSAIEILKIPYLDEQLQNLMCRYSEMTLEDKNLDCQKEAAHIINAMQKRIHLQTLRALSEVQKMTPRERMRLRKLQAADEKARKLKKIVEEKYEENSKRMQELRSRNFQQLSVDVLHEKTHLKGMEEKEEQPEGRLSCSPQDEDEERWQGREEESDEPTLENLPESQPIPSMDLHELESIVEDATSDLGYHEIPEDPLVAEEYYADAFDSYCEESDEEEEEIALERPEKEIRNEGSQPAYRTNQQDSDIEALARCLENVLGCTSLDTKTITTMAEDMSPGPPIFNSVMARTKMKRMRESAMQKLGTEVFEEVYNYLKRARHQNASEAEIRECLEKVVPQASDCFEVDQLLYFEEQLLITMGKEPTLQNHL

[12] = biological target: Serine/threonine-protein kinase Nek7 (Homo sapiens) (UniProt Q8TDX7); conditions: Compound concentration 1000.0 nM
[13] = biological target: Serine/threonine-protein kinase WNK4 (Homo sapiens) (UniProt Q96J92); conditions: Compound concentration 1000.0 nM
[14] = test system: Epidermal growth factor receptor (Homo sapiens), P00533 [UNDEFINED MUTATION]; conditions: Compound concentration 1000.0 nM
[15] = biological target: 5-hydroxytryptamine receptor 3A (Homo sapiens) (UniProt P46098); conditions: Compound concentration 10.0 uM
[16] = biological target: High affinity nerve growth factor receptor (Homo sapiens) (UniProt P04629); conditions: Compound concentration 1000.0 nM
[17] = biological target: Tyrosine-protein kinase Tec (Homo sapiens) (UniProt P42680); conditions: Compound concentration 1000.0 nM
[18] = biological target: Eukaryotic translation initiation factor 2-alpha kinase 1 (Homo sapiens) (UniProt Q9BQI3); conditions: Compound concentration 1000.0 nM
[19] = biological target: Calcium/calmodulin-dependent protein kinase type 1 (Homo sapiens) (UniProt Q14012); conditions: Compound concentration 1000.0 nM
[20] = test system: Epidermal growth factor receptor (Homo sapiens), P00533 [T790M]; conditions: Compound concentration 1000.0 nM
[21] = test system: ALK tyrosine kinase receptor (Homo sapiens), Q9UM73 [L1196M]; conditions: Compound concentration 1000.0 nM
[22] = biological target: Epidermal growth factor receptor (Homo sapiens) (UniProt P00533); conditions: Compound concentration 1000.0 nM
[23] = test system: Tyrosine-protein kinase ABL1 (Homo sapiens), P00519 [M351T]; conditions: Compound concentration 1000.0 nM
[24] = biological target: NUAK family SNF1-like kinase 1 (Homo sapiens) (UniProt O60285); conditions: Compound concentration 1000.0 nM
[25] = biological target: Muscarinic acetylcholine receptor M2 (Homo sapiens) (UniProt P08172); conditions: Compound concentration 10.0 uM
[26] = biological target: Tyrosine-protein kinase Fer (Homo sapiens) (UniProt P16591); conditions: Compound concentration 1000.0 nM
Sequence of Tyrosine-protein kinase Fer (Homo sapiens) (P16591 whole entry, looked up): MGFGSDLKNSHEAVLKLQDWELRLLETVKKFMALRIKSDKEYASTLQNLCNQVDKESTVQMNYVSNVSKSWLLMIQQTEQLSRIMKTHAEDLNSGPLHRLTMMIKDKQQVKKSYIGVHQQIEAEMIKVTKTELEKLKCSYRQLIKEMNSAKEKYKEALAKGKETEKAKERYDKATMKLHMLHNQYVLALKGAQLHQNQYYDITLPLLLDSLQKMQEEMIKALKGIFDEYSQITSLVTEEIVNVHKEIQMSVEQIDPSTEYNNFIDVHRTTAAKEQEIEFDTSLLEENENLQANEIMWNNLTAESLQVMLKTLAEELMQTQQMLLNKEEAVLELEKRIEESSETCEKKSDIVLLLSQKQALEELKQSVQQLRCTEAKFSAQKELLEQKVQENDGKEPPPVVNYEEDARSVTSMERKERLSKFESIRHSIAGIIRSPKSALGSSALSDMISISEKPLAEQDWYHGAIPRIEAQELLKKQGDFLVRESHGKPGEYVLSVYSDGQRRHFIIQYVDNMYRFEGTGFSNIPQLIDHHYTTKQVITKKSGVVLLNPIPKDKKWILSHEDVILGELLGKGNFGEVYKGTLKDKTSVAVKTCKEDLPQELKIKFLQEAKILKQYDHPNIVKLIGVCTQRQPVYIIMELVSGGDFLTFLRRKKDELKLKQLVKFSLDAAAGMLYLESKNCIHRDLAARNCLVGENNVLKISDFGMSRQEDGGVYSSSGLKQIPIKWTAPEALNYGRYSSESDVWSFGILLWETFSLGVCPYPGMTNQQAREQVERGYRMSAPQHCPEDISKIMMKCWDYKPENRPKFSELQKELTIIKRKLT

[27] = biological target: Ephrin type-A receptor 4 (Homo sapiens) (UniProt P54764); conditions: Compound concentration 1000.0 nM
[28] = biological target: Serine/threonine-protein kinase 17A (Homo sapiens) (UniProt Q9UEE5); conditions: Compound concentration 1000.0 nM
Sequence of Serine/threonine-protein kinase 17A (Homo sapiens) (Q9UEE5 whole entry): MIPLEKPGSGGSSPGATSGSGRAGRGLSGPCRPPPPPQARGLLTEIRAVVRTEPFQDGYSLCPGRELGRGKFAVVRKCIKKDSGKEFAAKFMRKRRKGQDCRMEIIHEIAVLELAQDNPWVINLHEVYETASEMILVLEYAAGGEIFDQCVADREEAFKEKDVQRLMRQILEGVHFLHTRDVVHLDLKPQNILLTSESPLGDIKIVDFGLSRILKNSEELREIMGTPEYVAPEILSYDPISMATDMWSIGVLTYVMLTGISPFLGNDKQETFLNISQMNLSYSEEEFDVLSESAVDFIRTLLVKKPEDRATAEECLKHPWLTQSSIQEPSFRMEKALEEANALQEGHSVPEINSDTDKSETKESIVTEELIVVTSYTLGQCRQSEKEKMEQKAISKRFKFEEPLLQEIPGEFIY

[29] = biological target: Vascular endothelial growth factor receptor 1 (Homo sapiens) (UniProt P17948); conditions: Compound concentration 1000.0 nM
[30] = biological target: Tyrosine-protein kinase ZAP-70 (Homo sapiens) (UniProt P43403); conditions: Compound concentration 1000.0 nM
[31] = biological target: Interleukin-1 receptor-associated kinase 4 (Homo sapiens) (UniProt Q9NWZ3); conditions: Compound concentration 1000.0 nM
[32] = biological target: Serine/threonine-protein kinase LATS2 (Homo sapiens) (UniProt Q9NRM7); conditions: Compound concentration 1000.0 nM
[33] = biological target: Casein kinase I isoform epsilon (Homo sapiens) (UniProt P49674); conditions: Compound concentration 1000.0 nM
[34] = biological target: Serine/threonine-protein kinase Chk2 (Homo sapiens) (UniProt O96017); conditions: Compound concentration 1000.0 nM
Sequence of Serine/threonine-protein kinase Chk2 (Homo sapiens) (O96017 whole entry): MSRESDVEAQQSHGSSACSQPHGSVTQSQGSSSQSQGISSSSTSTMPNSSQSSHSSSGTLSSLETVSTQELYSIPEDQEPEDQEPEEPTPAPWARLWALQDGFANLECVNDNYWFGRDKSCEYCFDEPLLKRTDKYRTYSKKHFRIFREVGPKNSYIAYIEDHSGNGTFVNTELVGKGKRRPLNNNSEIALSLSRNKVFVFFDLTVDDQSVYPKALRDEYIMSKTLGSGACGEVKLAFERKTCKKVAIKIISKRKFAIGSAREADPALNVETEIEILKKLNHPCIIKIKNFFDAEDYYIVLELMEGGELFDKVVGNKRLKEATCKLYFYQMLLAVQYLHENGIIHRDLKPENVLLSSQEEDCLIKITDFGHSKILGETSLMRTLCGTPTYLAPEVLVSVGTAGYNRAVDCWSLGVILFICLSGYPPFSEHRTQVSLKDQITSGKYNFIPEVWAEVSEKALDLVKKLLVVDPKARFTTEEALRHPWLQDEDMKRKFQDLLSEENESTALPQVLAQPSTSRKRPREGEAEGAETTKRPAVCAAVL

[35] = biological target: Mitogen-activated protein kinase 14 (Homo sapiens) (UniProt Q16539); conditions: Compound concentration 1000.0 nM
[36] = biological target: Wee1-like protein kinase (Homo sapiens) (UniProt P30291); conditions: Compound concentration 1000.0 nM
[37] = biological target: Dual specificity mitogen-activated protein kinase kinase 4 (Homo sapiens) (UniProt P45985); conditions: Compound concentration 1000.0 nM
Sequence of Dual specificity mitogen-activated protein kinase kinase 4 (Homo sapiens) (P45985 whole entry): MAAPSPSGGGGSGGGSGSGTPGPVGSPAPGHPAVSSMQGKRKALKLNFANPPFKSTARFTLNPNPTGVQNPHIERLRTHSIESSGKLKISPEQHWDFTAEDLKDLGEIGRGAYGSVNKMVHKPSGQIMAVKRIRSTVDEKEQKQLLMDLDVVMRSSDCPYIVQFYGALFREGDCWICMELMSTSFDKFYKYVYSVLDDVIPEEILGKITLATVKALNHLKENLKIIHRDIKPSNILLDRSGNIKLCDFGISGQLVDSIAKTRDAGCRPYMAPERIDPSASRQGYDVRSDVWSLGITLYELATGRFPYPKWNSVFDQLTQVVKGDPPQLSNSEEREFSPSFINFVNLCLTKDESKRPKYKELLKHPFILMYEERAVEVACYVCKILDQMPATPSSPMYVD

[38] = biological target: Tyrosine-protein kinase Blk (Homo sapiens) (UniProt P51451); conditions: Compound concentration 1000.0 nM
[39] = biological target: Myosin-IIIa (Homo sapiens) (UniProt Q8NEV4); conditions: Compound concentration 1000.0 nM
[40] = biological target: Receptor-type tyrosine-protein kinase FLT3 (Homo sapiens) (UniProt P36888); conditions: Compound concentration 1000.0 nM
[41] = biological target: Homeodomain-interacting protein kinase 3 (Homo sapiens) (UniProt Q9H422); conditions: Compound concentration 1000.0 nM
[42] = biological target: Non-receptor tyrosine-protein kinase TYK2 (Homo sapiens) (UniProt P29597); conditions: Compound concentration 1000.0 nM
[43] = biological target: Phosphatidylinositol 4-phosphate 5-kinase type-1 alpha (Homo sapiens) (UniProt Q99755); conditions: Compound concentration 1000.0 nM
[44] = test system: Mast/stem cell growth factor receptor Kit (Homo sapiens), P10721 [V559D,T670I]; conditions: Compound concentration 1000.0 nM
Sequence of Mast/stem cell growth factor receptor Kit (Homo sapiens), P10721 [V559D,T670I] (P10721 whole entry V559D/T670I): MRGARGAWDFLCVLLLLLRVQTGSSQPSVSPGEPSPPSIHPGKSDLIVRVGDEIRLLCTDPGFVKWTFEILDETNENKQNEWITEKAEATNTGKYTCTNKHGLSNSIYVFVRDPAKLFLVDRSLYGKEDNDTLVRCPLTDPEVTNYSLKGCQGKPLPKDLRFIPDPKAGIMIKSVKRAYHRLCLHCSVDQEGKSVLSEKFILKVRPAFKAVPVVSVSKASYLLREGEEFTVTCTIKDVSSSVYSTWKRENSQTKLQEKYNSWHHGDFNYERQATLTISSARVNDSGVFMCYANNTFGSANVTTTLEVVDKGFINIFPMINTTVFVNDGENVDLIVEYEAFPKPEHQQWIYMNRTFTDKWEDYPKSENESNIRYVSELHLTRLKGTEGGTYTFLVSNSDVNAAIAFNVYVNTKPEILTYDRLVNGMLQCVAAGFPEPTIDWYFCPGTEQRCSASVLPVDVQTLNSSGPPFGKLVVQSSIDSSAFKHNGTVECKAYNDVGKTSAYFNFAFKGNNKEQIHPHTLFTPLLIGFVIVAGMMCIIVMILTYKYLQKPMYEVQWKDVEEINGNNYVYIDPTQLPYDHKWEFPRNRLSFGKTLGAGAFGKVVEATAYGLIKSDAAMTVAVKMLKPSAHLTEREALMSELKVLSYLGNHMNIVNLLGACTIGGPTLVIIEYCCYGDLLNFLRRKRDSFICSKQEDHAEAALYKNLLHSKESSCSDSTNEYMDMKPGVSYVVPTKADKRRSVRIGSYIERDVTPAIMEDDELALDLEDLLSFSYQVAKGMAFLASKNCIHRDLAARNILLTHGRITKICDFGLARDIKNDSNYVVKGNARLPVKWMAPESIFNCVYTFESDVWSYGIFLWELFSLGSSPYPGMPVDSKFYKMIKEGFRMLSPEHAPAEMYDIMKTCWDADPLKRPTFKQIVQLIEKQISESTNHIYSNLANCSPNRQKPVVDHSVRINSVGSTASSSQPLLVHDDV

[45] = biological target: Serine/threonine-protein kinase Nek1 (Homo sapiens) (UniProt Q96PY6); conditions: Compound concentration 1000.0 nM

Sequence of Angiopoietin-1 receptor (Homo sapiens) (Q02763 whole entry): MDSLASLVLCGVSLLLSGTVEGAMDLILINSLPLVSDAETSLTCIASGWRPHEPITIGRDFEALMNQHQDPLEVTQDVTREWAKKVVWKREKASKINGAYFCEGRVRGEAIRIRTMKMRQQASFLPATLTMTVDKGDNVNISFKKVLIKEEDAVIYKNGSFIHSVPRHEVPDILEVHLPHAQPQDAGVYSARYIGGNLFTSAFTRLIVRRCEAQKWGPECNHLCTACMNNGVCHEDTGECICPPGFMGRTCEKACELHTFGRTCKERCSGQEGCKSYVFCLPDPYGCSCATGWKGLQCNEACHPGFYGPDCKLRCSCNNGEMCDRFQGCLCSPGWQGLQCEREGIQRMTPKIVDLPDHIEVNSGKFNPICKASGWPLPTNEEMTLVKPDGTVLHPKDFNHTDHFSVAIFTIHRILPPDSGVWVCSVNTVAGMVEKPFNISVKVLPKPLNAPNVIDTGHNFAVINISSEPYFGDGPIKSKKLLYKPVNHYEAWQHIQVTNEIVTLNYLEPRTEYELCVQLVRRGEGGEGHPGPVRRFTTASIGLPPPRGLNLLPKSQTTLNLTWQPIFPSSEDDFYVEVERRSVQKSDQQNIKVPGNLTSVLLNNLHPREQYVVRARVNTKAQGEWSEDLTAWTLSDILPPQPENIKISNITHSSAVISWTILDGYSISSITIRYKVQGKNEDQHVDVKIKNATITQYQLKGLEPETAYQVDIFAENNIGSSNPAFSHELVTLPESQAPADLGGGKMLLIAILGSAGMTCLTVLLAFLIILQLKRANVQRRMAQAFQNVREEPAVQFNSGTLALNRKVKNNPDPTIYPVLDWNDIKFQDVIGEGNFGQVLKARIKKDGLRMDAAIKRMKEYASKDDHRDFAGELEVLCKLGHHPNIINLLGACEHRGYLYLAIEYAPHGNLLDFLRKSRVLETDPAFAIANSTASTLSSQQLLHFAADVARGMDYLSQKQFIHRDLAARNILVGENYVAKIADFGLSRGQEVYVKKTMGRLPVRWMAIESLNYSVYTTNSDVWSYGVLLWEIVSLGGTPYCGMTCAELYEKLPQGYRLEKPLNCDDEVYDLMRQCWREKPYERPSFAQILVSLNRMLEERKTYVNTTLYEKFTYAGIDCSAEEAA

CN([C@@H]1CCc2c(CC(=O)O)c3cc(S(C)(=O)=O)ccc3n2C1)S(=O)(=O)c1ccc(F)cc1
inactive: residual activity [1] 100% | residual activity [2] 88% | residual activity [3] 99% | residual activity [4] 100% | residual activity [5] 100% | residual activity [6] 100% | residual activity [7] 95% | residual activity [8] 100% | residual activity [9] 87% | residual activity [10] 95% | residual activity [11] 100% | residual activity [12] 98% | residual activity [13] 100% | residual activity [14] 82% | inhibition [15] -2.99% | residual activity [16] 100% | residual activity [17] 100% | residual activity [18] 90% | residual activity [19] 80% | residual activity [20] 100% | residual activity [21] 89% | residual activity [22] 100% | residual activity [23] 86% | residual activity [24] 100% | inhibition [25] -9.24% | residual activity [26] 100% | residual activity [27] 93% | residual activity [28] 100% | residual activity [29] 88% | residual activity [30] 100% | residual activity [31] 95% | residual activity [32] 88% | residual activity [33] 96% | residual activity [34] 100% | residual activity [35] 100% | residual activity [36] 100% | residual activity [37] 75% | residual activity [38] 99% | residual activity [39] 100% | residual activity [40] 100% | residual activity [41] 68% | residual activity [42] 83% | residual activity [43] 100% | residual activity [44] 100% | residual activity [45] 100%

CN([C@@H]1CCc2c(CC(=O)O)c3ccccc3n2C1)S(=O)(=O)c1ccc(F)cc1 [MK-7246]
inactive: residual activity [1] 100% | residual activity [2] 92% | residual activity [3] 91% | residual activity [4] 100% | residual activity [5] 100% | residual activity [6] 100% | residual activity [7] 76% | residual activity [8] 100% | residual activity [9] 94% | residual activity [10] 100% | residual activity [11] 100% | residual activity [12] 100% | residual activity [13] 100% | residual activity [14] 100% | inhibition [15] -3.85% | residual activity [16] 100% | residual activity [17] 100% | residual activity [18] 98% | residual activity [19] 100% | residual activity [20] 100% | residual activity [21] 74% | residual activity [22] 95% | residual activity [23] 100% | residual activity [24] 100% | inhibition [25] -0.4% | residual activity [26] 100% | residual activity [27] 87% | residual activity [28] 100% | residual activity [29] 100% | residual activity [30] 100% | residual activity [31] 93% | residual activity [32] 100% | residual activity [33] 90% | residual activity [34] 100% | residual activity [35] 100% | residual activity [36] 100% | residual activity [37] 100% | residual activity [38] 100% | residual activity [39] 100% | residual activity [40] 100% | residual activity [41] 71% | residual activity [42] 100% | residual activity [43] 100% | residual activity [44] 100% | residual activity [45] 100%
